Data taken from patent US11529323B2 (priority 2017, dated 2022).

Experiments:
IL-6 = test: Serum IL-6 ELISA, Study 2; assay type: in vivo, mouse; conditions: Study 2 terminal serum; AR-42 10 mg/kg
From the text: FIG. 4A is a table showing multiplex analysis of diverse serum cytokines in terminal samples from Study 2. Presented cytokines are limited to those showing significant differences from tumor-bearing vehicle-treated controls. G-CSF: granulocyte colony-stimulating factor, GM-CSF: granulocyte macrophage colony-stimulating factor, IL-6: interleukin-6, IL-17: interleukin-17, IP-10: interferon gamma-induced protein 10, KC: chemokine (C-X-C motif) ligand 1, LIF: leukemia inhibitory factor, M-CSF: macrophage colony-stimulating factor. FIG. 4B is a bar graph showin ELISA analysis of serum IL-6 levels in terminal samples from Study 2. ND, not detected. FIG. 4C is a plot showing individual animal serum IL-6 values as determined in A plotted against tumor-corrected terminal bodyweights from Study 2 (Pearson's Correlation). […] FIG. 4E is a plot showing spleen weights normalized to tumor-corrected terminal body weights of mice from Study 2. FIG. 4F is a bar graph showing ELISA analysis of STAT3 within C-26 tumors from Study 2. […]
(§1) Serum cytokine panel analyses were performed by a commercial vendor (Eve Technologies, Calgary, Canada) as previously described. Serum interleukin-6 (IL-6) was measured using a commercial ELISA kit (R&D Systems, Minneapolis, Minn., USA) according to the manufacturer's instructions.

[1] = tested on: C-26 colon adenocarcinoma cachexia model; test: Initial AR-42/GTx-024 combination study (Study 1), C-26 model; assay type: in vivo, mouse; conditions: for effect on gastrocnemius and quadriceps mass: monotherapy (GTx-024 15 mg/kg; AR-42 10 mg/kg)
Procedure: (§2) These studies were performed as previously described (Tseng Y C, et al. J Natl Cancer Inst. 2015 107(12):djv274) with modifications. Tumors were established in the right flank by subcutaneous injection of C-26 cells (0.5×10^6 cells in 0.1 mL). […] TFM-4AS-1 (a potent experimental SARM), dihydrotestosterone (DHT) and vehicles were administered by subcutaneous injection.
Male CD2F1 mice were stratified by body weight and then randomly assigned into 6 groups of 6 animals each. Historically, 6 animals per group provided sufficient power to detect treatment-mediated differences in tumor-bearing treated animals compared to controls. Tumors were established in four of the groups, while the fifth and sixth groups served as tumor-free controls. Six days later, animals with palpable tumors were treated twice daily for 13 days. […] Body weight, tumor volume, and feed consumption were monitored every other day. Upon sacrifice on day 18, sera were collected and hind limb skeletal muscles, heart, spleen and epididymal adipose tissues were harvested, weighed, flash frozen, and stored for subsequent analyses.
Male CD2F1 mice (6-7 weeks of age; Harlan Laboratories, Indianapolis, Ind.) were group-housed under conditions of constant photoperiod (12-hour light/12-hour dark), temperature and humidity with ad libitum access to water and standard pelleted chow. […] In experiments in which food consumption was determined, the food in each cage was weighed daily and the daily decrease in food weight was divided by the number of mice in the cage. Tumor volumes were calculated from caliper measurements using a standard formula (length×width^2×π/6). Mice were euthanized by CO2 inhalation.

C-26 tumor-bearing mice = conditions: AR-42 50 mg/kg, Tseng et al. 2015, cited from earlier work
[2] = oral gavage every other day; cited from earlier work
phospho-STAT3 (pSTAT3) = test: Western blot of phospho-STAT3 in gastrocnemius muscle, Study 1; assay type: in vivo, mouse; conditions: C-26 tumor-bearing animals
From the text: FIG. 4A is a table showing multiplex analysis of diverse serum cytokines in terminal samples from Study 2. Presented cytokines are limited to those showing significant differences from tumor-bearing vehicle-treated controls. G-CSF: granulocyte colony-stimulating factor, GM-CSF: granulocyte macrophage colony-stimulating factor, IL-6: interleukin-6, IL-17: interleukin-17, IP-10: interferon gamma-induced protein 10, KC: chemokine (C-X-C motif) ligand 1, LIF: leukemia inhibitory factor, M-CSF: macrophage colony-stimulating factor. FIG. 4B is a bar graph showin ELISA analysis of serum IL-6 levels in terminal samples from Study 2. ND, not detected. FIG. 4C is a plot showing individual animal serum IL-6 values as determined in A plotted against tumor-corrected terminal bodyweights from Study 2 (Pearson's Correlation). […]
Western blots from all studies were performed on gastrocnemius muscle from representative animals lysed by Nonidet P-40 isotonic lysis buffer [50 mM Tris-HCl, pH 7.5, 120 mM NaCl, 1% (v/v) Nonidet P-40, 1 mM EDTA, 50 mM NaF, 40 mM glycerophosphate, and […] each of protease inhibitors (aprotinin, pepstatin, and leupeptin)]. Equivalent amounts of protein from each sample, as determined by Bradford assay (Bio-Rad), was resolved by SDS-PAGE and then transferred (semi-dry) onto immobilon-nitrocellulose membranes (Millipore, Billerica, Mass.). […]

serum cytokines = test: Serum cytokine panel, multiplex analysis, Study 2, C-26 tumor-bearing mice; assay type: in vivo, mouse; conditions: GTx-024 15 mg/kg, AR-42 10 mg/kg p.o. qd, Day 17 sacrifice, mean ± SD
Procedure: as §2
This confirmatory study was performed exactly as Study 1 with expanded animal numbers. Tumor-free control groups were maintained at 6 animals each, whereas 10 animals were included in each of the tumor-bearing groups. […] Grip strength was measured on study days 0 (baseline) and 16. Due to rapid model progression, this study was terminated after only 12 days of treatment.
as §1

| Structure (SMILES) | effect on gastrocnemius and quadriceps mass ([1]; Study 1, C-26 tumor-bearing) | pSTAT3 abundance in gastrocnemius muscle (phospho-STAT3 (pSTAT3)) | Eotaxin, serum (serum cytokines) [pg/mL] | G-CSF, serum (serum cytokines) [pg/mL] | GM-CSF, serum (serum cytokines) [pg/mL] | IFNg, serum (serum cytokines) [pg/mL] | IL12 (p40), serum (serum cytokines) [pg/mL] | IL-1a, serum (serum cytokines) [pg/mL] | IL-1b, serum (serum cytokines) [pg/mL] | IL-2, serum (serum cytokines) [pg/mL] | IL-3, serum (serum cytokines) [pg/mL] | IL-4, serum (serum cytokines) [pg/mL] | IL-5, serum (serum cytokines) [pg/mL] | IL-6, serum (serum cytokines) [pg/mL] | IL-7, serum (serum cytokines) [pg/mL] | IL-9, serum (serum cytokines) [pg/mL] | IL-10, serum (serum cytokines) [pg/mL] | IL-12 (p70), serum (serum cytokines) [pg/mL] | IL-13, serum (serum cytokines) [pg/mL] | IL-15, serum (serum cytokines) [pg/mL] | further results |
| --- | --- | --- | --- | --- | --- | --- | --- | --- | --- | --- | --- | --- | --- | --- | --- | --- | --- | --- | --- | --- | --- |
| CC(C)[C@H](C(=O)Nc1ccc(C(=O)NO)cc1)c1ccccc1 [AR-42, (S)—N-hydroxy-4-(3-methyl-2-phenylbutanamido)benzamide] | not translated into significant improvements in gastrocnemius and quadriceps mass | reduced pSTAT3 but not equally in all animals | 735.73 ± 110.62 | 2782.18 ± 2191.30 | 18.70 ± 3.77 | 4.69 ± 1.11 | 31.22 ± 24.43 | 143.31 ± 157.59 | 20.48 ± 6.25 | 19.37 ± 6.07 | 0.72 ± 0.83 | 0.32 ± 0.19 | 5.50 ± 4.41 | 256.59 ± 183.1 | 41.51 ± 99.92 | 11.28 ± 7.68 | 15.13 ± 11.16 | 10.16 ± 6.16 | 34.19 ± 8.29 | 51.57 ± 19.99 | circulating IL-6 levels (ELISA) (IL-6): did not affect circulating IL-6 levels; terminal body weight, corrected for tumor weight ([1]; Study 1, Day 18, C-26 tumor-bearing, AR-42 10 mg/kg, GTx-024 15 mg/kg, oral, 13 days): 93.6±7.7 % of baseline; effect on adipose (C-26 tumor-bearing mice): adipose-sparing effect; serum IL-6 levels and gastrocnemius IL-6 receptor mRNA abundance (C-26 tumor-bearing mice; tumor-bearing mice): reduced serum IL-6 levels, as well as gastrocnemius IL-6 receptor mRNA abundance; maximally tolerated dose in mice [2]: 50 mg/kg; IL-17, serum (serum cytokines): 1.82 ± 0.85 pg/mL; IP-10, serum (serum cytokines): 215.35 ± 52.46 pg/mL; KC, serum (serum cytokines): 363.38 ± 200.65 pg/mL; LIF, serum (serum cytokines): 15.79 ± 5.15 pg/mL; LIX, serum (serum cytokines): 2515.38 ± 3119.67 pg/mL; M-CSF, serum (serum cytokines): 20.21 ± 4.63 pg/mL; MCP-1, serum (serum cytokines): 91.18 ± 40.23 pg/mL; MIG, serum (serum cytokines): 55.17 ± 10.58 pg/mL; MIP-1a, serum (serum cytokines): 63.79 ± 19.14 pg/mL; MIP-1b, serum (serum cytokines): 76.41 ± 12.81 pg/mL; MIP-2, serum (serum cytokines): 146.34 ± 32.60 pg/mL; RANTES, serum (serum cytokines): 19.70 ± 4.31 pg/mL; TNFa, serum (serum cytokines): 12.77 ± 4.55 pg/mL; VEGF, serum (serum cytokines): 1.04 ± 0.24 pg/mL |
| C[C@](O)(COc1ccc(C#N)cc1)C(=O)Nc1ccc(C#N)c(C(F)(F)F)c1 [GTx-024, (2S)-3-(4-cyanophenoxy)-N-(4-cyano-3-(trifluoromethyl)phenyl)-2-hydroxy-2-methylpropanamide] | did not spare | no apparent effect on pSTAT3 | 876.82 ± 100.53 | 2446.63 ± 1625.70 | 17.35 ± 4.33 | 4.12 ± 2.09 | 27.61 ± 27.95 | 167.80 ± 156.50 | 12.12 ± 5.54 | 15.62 ± 3.41 | 0.92 ± 0.56 | 0.23 ± 0.14 | 1.11 ± 0.66 | 397.54 ± 341.43 | 11.19 ± 8.17 | 8.69 ± 9.43 | 14.15 ± 18.01 | 12.62 ± 7.71 | 31.63 ± 8.22 | 97.32 ± 39.18 | effect on body weight ([1]; Study 1, C-26 tumor-bearing, GTx-024 15 mg/kg monotherapy): did not spare body weight; per animal food consumption ([1]; Study 1, between day 14 and 16, GTx-024 in tumor-free animals, combination in tumor-bearing animals, relative to other groups): small increases in per animal food consumption; body weight in tumor-free controls ([1]; Study 1, tumor-free mice, GTx-024 15 mg/kg): did not cause body weight loss; IL-17, serum (serum cytokines): 1.75 ± 1.28 pg/mL; IP-10, serum (serum cytokines): 154.76 ± 17.98 pg/mL; KC, serum (serum cytokines): 288.89 ± 154.46 pg/mL; LIF, serum (serum cytokines): 45.26 ± 21.57 pg/mL; LIX, serum (serum cytokines): 5234.39 ± 4771.34 pg/mL; M-CSF, serum (serum cytokines): 22.23 ± 9.45 pg/mL; MCP-1, serum (serum cytokines): 88.07 ± 24.41 pg/mL; MIG, serum (serum cytokines): 39.33 ± 12.88 pg/mL; MIP-1a, serum (serum cytokines): 108.03 ± 27.91 pg/mL; MIP-1b, serum (serum cytokines): 81.67 ± 11.63 pg/mL; MIP-2, serum (serum cytokines): 147.63 ± 59.81 pg/mL; RANTES, serum (serum cytokines): 20.67 ± 4.57 pg/mL; TNFa, serum (serum cytokines): 12.71 ± 5.12 pg/mL; VEGF, serum (serum cytokines): 0.87 ± 0.29 pg/mL |
